From patent US20260324636A1, “COMPOSITION FOR PROVIDING PLANT WITH STRESS RESISTANCE” (KIRIN HOLDINGS KABUSHIKI KAISHA, priority 2022, published 2026) come the findings set out here.

One test concerns HSP17.6C. Description: HSP17.6C gene expression by real-time PCR, Example 5. Conditions: Arabidopsis thaliana; 0.1 mM in medium, 6 hours after application, 22° C.; read-out: HSP17.6C expression level, increase vs control group. In kind it is in vivo. On the procedure: The materials as used in Example 1 were used.
The method as employed in Example 1 was employed.
N-acetylglutamic acid was applied to Arabidopsis thaliana 7 days after inoculation to the final concentration of 0.1 mM in the medium, followed by incubation for 2 hours or 6 hours. The incubator was maintained at a temperature of 22° C. for a daily cycle of 16 hours light and 8 hours darkness. After incubation, the samples were frozen with liquid nitrogen, and RNA was extracted using the RNeasy Plant Mini Kit (Thermo Fischer Scientific).
cDNA that would be necessary as a real-time PCR template was synthesized from the RNA obtained. 500 ng total RNA was used for each sample, and cDNA was synthesized using the Verso cDNA Synthesis Kit (Thermo Fischer Scientific). The synthesized cDNA was diluted to 5-fold with sterile distilled water and subjected to real-time PCR. For real-time PCR, a reaction solution containing HSFA2 (AGI code: AT2G26150) and HSP17.6C (AGI code: AT1G53540) as the target genes, ACTIN2 (AGI code: AT3G18780) as the reference gene, and TB Green Ex Taq II (TaKaRa) was prepared. PCR was performed with the use of the LightCycler® 480 System (Roche) with the number of amplification cycles of 50. […]
Thereafter, the relative expression level of the target genes upon N-acetylglutamic acid treatment were calculated by the ΔΔCt method using the Cp values obtained by real-time PCR.
On the technique in general: In qPCR the cycle at which signal appears reflects the starting amount.

A further test has as its system OsHSFA2E. Description: OsHSFA2E gene expression by real-time PCR, Example 6. It is filed as in vivo, rice. As to conditions: Oryza sativa; 0.5 mM in medium, 30° C. for 2 hours, aboveground part; read-out: OsHSFA2E expression level, increase vs control. The source says: In order to design primers for the target genes necessary for gene expression analysis by real-time PCR, homologs of Arabidopsis thaliana high-temperature-responsive genes in rice were searched for. The amino acid sequence of Arabidopsis thaliana HSFA2 (AGI code: AT2G26150) was obtained from TAIR (https://www.arabidopsis.org/), and the nucleotide sequence of the homolog was obtained using RAP-DB (https://rapdb.dna.affrc.go.jp/). As a reference gene, the nucleotide sequence of the homolog of Arabidopsis thaliana ACTIN2 (AGI code: AT3G18780) was also obtained. Homolog genes in rice were designated as OsHSFA2E and OsACT1, respectively.
The materials as used in Example 3 were used.
The method as employed in Example 3 was employed.
The rice samples subjected to germination for 3 days were inoculated into a liquid medium consisting of a ½ Murashige and Skoog Plant Salt Mixture. Specifically, a liquid medium was dispensed at 3 ml/well to a 12-well microplate (IWAKI), and 3 samples were transferred to each well. N-acetylglutamic acid was applied to each well to the final concentration of 0.5 mM in the medium, incubation was performed at 30° C. for 2 hours, and RNA was extracted from the aboveground part using the RNeasy Plant Mini Kit. […]
(§1) Thereafter, the relative expression level of the target gene upon N-acetylglutamic acid treatment was calculated by the ΔΔCt method.

The subject of a further test is H1HSP17.6C. Description: H1HSP17.6C gene expression by real-time PCR, Example 7. It is filed as in vivo, hop. Conditions: 1 mM in medium, 20° C. for 2 hours, leaves; read-out: H1HSP17.6C expression level, increase vs control.
Source text: In order to design primers for the target genes necessary for gene expression analysis by real-time PCR, homologs of Arabidopsis thaliana high-temperature-responsive genes in hop were searched for. The amino acid sequences of Arabidopsis thaliana HSFA2 (AGI code: AT2G26150) and HSP17.6C (AGI code: AT1G53540) were obtained from TAIR (https://www.arabidopsis.org/), and the nucleotide sequences of the gene homologs were obtained using Hopbase (https://hopbase.cgrb.oregonstate.edu/). […] As the reference gene, the nucleotide sequence of the homolog of Arabidopsis thaliana EF1α (AGI code: AT1G18070) was obtained. The hop homolog genes were designated as H1HSFA2, H1HSP17.6C, and HIEF1α, respectively.
The materials as used in Example 4 were used.
The methods as employed in Example 4 were employed.
The leaves in the first and the second nodes from the apical buds of the tissue-cultured seedlings were sampled 1.5 months after the initiation of subculture and inoculated into a liquid medium consisting of a ½ Murashige and Skoog Plant Salt Mixture and 2 (w/v) % glucose. Specifically, a liquid medium was dispensed at 5 ml/well to a 6-well microplate (IWAKI), and 5 hop leaves were mounted thereon. […]
as §1

As to `CC(=O)N[C@@H](CCC(=O)O)C(=O)O` [N-acetylglutamic acid], the fold induction at 100 µM with HSP17.6C is 1.2. In the test with OsHSFA2E, the fold induction at 500 µM came to 1.4. In the test with H1HSP17.6C, the fold induction at 1000 µM was 1.8.
